Test results from US20220162561A1, “COMPOSITION FOR PROMOTING SECRETION OF EXTRACELLULAR VESICLES” (priority 2019, published 2022).

Key:
Type in all cases: cell-based
[1] = tested on: human bone marrow-derived mesenchymal stem cells; experiment: Test Example 7: promotion of secretion of extracellular vesicles, PS Capture exosome ELISA (anti-CD63); conditions: 24 hours, compound untreated group (control) set to 1
Procedure: (§1) Human bone marrow-derived mesenchymal stem cells or human umbilical cord matrix-derived mesenchymal stem cells (#C-12974, #C-12971 manufactured by Takara Bio Inc.) were suspended in mesenchymal stem cell growth medium 2 (C-28009 manufactured by Takara Bio Inc.) so as to be 8×10^4 cells/1.8 mL, and seeded on a 6-well cell culture treatment plate (3516 manufactured by Corning Inc.). To the seeded mesenchymal stem cells was added each 200 μL of the compounds of Examples 1 to 8 diluted to 10-fold concentration with the mesenchymal stem cell growth medium 2, and after culturing for 24 hours, the culture solution was recovered. Subsequently, the recovered culture solution was centrifuged under 20,000×g at 4° C. for 60 minutes to prepare a culture solution from which cell fragments and Large Extracellular Vesicles were removed. For the detection of extracellular vesicles, PS Capture (trademark) exosome ELISA kit (anti-mouse IgG POD) (#297-79201 manufactured by FUJIFILM Wako Pure Chemical Corporation) was used.
(§2) To Reaction/Washing Buffer (1×) prepared by diluting Reaction/Washing Buffer (10×) 10-fold with purified water was added 1/100 amount of Exosome Binding Enhancer (100×) to prepare a Reaction/Washing Buffer (1×). Each culture solution was diluted 5-fold with the Reaction/Washing Buffer (1×). After washing Exosome Capture 96-well plate with 300 μL of the Reaction/Washing Buffer (1×) three times, 5-fold-diluted each extracellular vesicle solution, or the mesenchymal stem cell growth medium 2 in which no cell was cultured (negative control) was added to each well, and the mixture was reacted at room temperature for 2 hours while shaking with a microplate shaker. After completion of the reaction, the reaction mixture was discarded, and after washing each well with 300 μL of the Reaction/Washing Buffer (1×) three times, 100 μL of Primary Antibody Anti-CD63 (×100) diluted to 1,000-fold with the Reaction/Washing Buffer (1×) was added thereto, and the mixture were reacted at room temperature for 1 hour while shaking with a microplate shaker. After completion of the reaction, the reaction mixture was discarded, and after washing each well with 300 μL of the Reaction/Washing Buffer (1×) three times, 100 μL of Secondary Antibody HRP-conjugated Anti-mouse IgG (100×) diluted to 1,000-fold with the Reaction/Washing Buffer (1×) was added thereto, and the mixture were reacted at room temperature for 1 hour while shaking with a microplate shaker. After completion of the reaction, the reaction mixture was discarded, and after washing each well with 300 μL of the Reaction/Washing Buffer (1×) five times, 100 μL of TMB Solution was added, and after shaking with a microplate shaker for 1 minutes, the mixture was reacted at room temperature for 30 minutes. After completion of the reaction, 100 μL of Stop Solution was added thereto, and after shaking with a microplate shaker for 5 seconds, the absorbance at 450 nm and 620 nm was measured with Enspire (manufactured by PerkinElmer). Based on the obtained measured values, a value subtracting the absorbance at 620 nm from the absorbance at 450 nm was calculated and a relative value when the compound untreated group (control) was set to 1 was calculated.

[2] = tested on: human umbilical cord matrix-derived mesenchymal stem cells; experiment: as above; conditions: 24 hours, compound untreated group (control) set to 1
Procedure: as §1, §2

[3] = tested on: 293 cells; experiment: Test Examples 10 and 11: promotion of secretion of extracellular vesicles, Tim4-CD63 / Tim4-CD81 ELISA and nanoparticle tracking analysis; conditions: final concentration 0 to 1 μM, 24 hours
Procedure: (§3) After stirring 10 mL of deactivated FBS and 2 mL of a 50% (w/v %) Poly(ethylene glycol) 10,000 solution (#81280 available from Sigma-Aldrich Co., LLC) at 4° C. for 2 hours, extracellular vesicles were precipitated under the centrifugation conditions of 1,500×g at 4° C. for 30 minutes, and the supernatant was recovered to prepare Exosome-free FBS. Next, 293 cells (CRL-1573TM available from ATCC) or 293T cells (CRL-3216TM available from ATCC) were suspended in Advanced DMEM (#12491015 available from Thermo Fisher Scientific K.K.) containing 2% (v/v %) Exosome-free FBS with 2×10^4 cells/200 μL, seeded on an adhesive surface 96-well plate (#3595 manufactured by Corning Inc.) and pre-culture was carried out for 24 hours. After 24 hours, the culture solution was removed, a mixed solution of 199.5 μL of 2% (v/v %) Exosome-free FBS-containing Advanced DMEM and 0.5 μL (final concentration: 0 to 1 μM) of the compound of Example 1, 5 or 9 prepared in DMSO was added thereto, and the cells were cultured for 24 hours. Thereafter, the culture solution was recovered in a 1.5 mL tube, the cells were precipitated under centrifugation conditions of 300×g at 4° C. for 5 minutes, and the culture supernatant was recovered. Subsequently, the recovered culture supernatant was subjected to centrifugation under the conditions of 2,000×g at 4° C. for 20 minutes to precipitate cell fragments, and the supernatant was recovered. Further, the recovered supernatant was subjected to centrifugation under the conditions of 10,000×g at 4° C. for 30 minutes, and the supernatant was recovered. For detection of the extracellular vesicles contained in the supernatant after centrifugation of 10,000×g, Tim4-human CD63 ELISA method and Tim4-human CD81ELISA method mentioned later was used.
(§4) <Tim4-Human CD63 ELISA Method>100 μL/well of 1 μg/mL Tim4 protein prepared in Carbonate Buffer (solution containing 71.4 mM NaHCO3 and 28.6 mM Na2CO3) was added to a 96-well plate (#3801-096 manufactured by IWAKI & CO., LTD.) and made it a solid phase. After washing the 96-well plate with a TBST solution, 200 μL/well of the TBST solution containing 1% (w/v %) BSA was added thereto and a blocking treatment for 1 hour was carried out. Next, 90 μL of the supernatant recovered as mentioned above was added to the well, and 10 μL of a 20 mM CaCl2) solution was further added to bind the extracellular vesicles to the Tim4 protein. Subsequently, 100 μL/well of 1 μg/mL Anti-human CD63 Antibody (#353014 available from BioLegend Inc.) diluted with the TBST solution containing 2 mM CaCl2) was added thereto and the reaction was carried out for 1 hour. 200 μL/well of the TBST solution containing 2 mM CaCl2) was added thereto, and thereafter, the TBST solution was removed. […]

[4] = tested on: 293T cells; experiment: as above; conditions: final concentration 0 to 1 μM, 24 hours
Procedure: as §3, §4

[5] = tested on: 293 cells; experiment: Test Example 13: cell proliferation activity, Cell Count Reagent SF
Procedure: After 30 minutes, absorbance at 450 nm was measured to evaluate cell proliferation activity.

Compound: Cc1cc2c(C(C)C)c(O)c(O)c(C=O)c2c(O)c1-c1c(C)cc2c(C(C)C)c(O)c(O)c(C=O)c2c1O [Example 4, (R)-(−)-Gossypol]
- Relative value of difference of absorbance ([1]; 2 μM): 2.39
- Relative value of difference of absorbance ([2]; 2 μM): 1.95

Compound: CCCCCCCCCCCc1ccc(/C=C2\N=C(c3ccc[nH]3)C=C2OC)[nH]1.Cl [Example 7, Undecylprodigiosin Hydrochloride]
- Relative value of difference of absorbance ([1]; 20 nM): 2.88
- Relative value of difference of absorbance ([2]; 20 nM): 1.74

Compound: CC(=O)O.Cc1cc2c(C(C)C)c(O)c(O)c(C=O)c2c(O)c1-c1c(C)cc2c(C(C)C)c(O)c(O)c(C=O)c2c1O [Example 2, (S)-Gossypol Acetate]
- Relative value of difference of absorbance ([1]; 2 μM): 2.14
- Relative value of difference of absorbance ([2]; 2 μM): 1.57

Compound: Cc1cc2c(C(=O)NC[C@H](C)c3ccccc3)c(O)c(O)cc2c(O)c1-c1c(C)cc2c(C(=O)NC[C@H](C)c3ccccc3)c(O)c(O)cc2c1O [Example 8, Sabutoclax]
- Relative value of difference of absorbance ([1]; 2 μM): 1.39
- Relative value of difference of absorbance ([2]; 2 μM): 1.44

Compound: COC1=CC(c2cc3ccccc3[nH]2)=N/C1=C\c1[nH]c(C)cc1C.CS(=O)(=O)O [Example 5, Obatoclax Mesylate]
- Relative value of difference of absorbance ([1]; 20 nM): 1.81
- Relative value of difference of absorbance ([2]; 20 nM): 1.65
- amount of secretion of CD63 and/or CD81-positive extracellular vesicles [3]: promotes
- amount of secretion of CD63 and/or CD81-positive extracellular vesicles [4]: promotes
- effect on the proliferative activity ([5]; concentration of at least about 0.03 μM (30 nM) or less): do not significantly affect

Compound: Cc1cc2c(C(C)C)c(O)c(O)cc2c(O)c1-c1c(C)cc2c(C(C)C)c(O)c(O)cc2c1O [Example 3, (+)-Apogossypol]
- Relative value of difference of absorbance ([1]; 2 μM): 1.53
- Relative value of difference of absorbance ([2]; 2 μM): 1.31

Compound: CCCCCC1=C/C(=C\c2[nH]c(-c3ccc[nH]3)cc2OC)N=C1C.Cl [Example 6, Prodigiosin Hydrochloride]
- Relative value of difference of absorbance ([1]; 20 nM): 1.31
- Relative value of difference of absorbance ([2]; 20 nM): 1.48

Compound: CC(=O)O.Cc1cc2c(C(C)C)c(O)c(O)c(C=O)c2c(O)c1-c1c(C)cc2c(C(C)C)c(O)c(O)c(C=O)c2c1O (racemic) [Example 1, (±)-Gossypol Acetate]
- Relative value of difference of absorbance ([1]; 2 μM): 2.46
- Relative value of difference of absorbance ([2]; 2 μM): 1.97
- amount of secretion of CD63 and/or CD81-positive extracellular vesicles [3]: promotes
- amount of secretion of CD63 and/or CD81-positive extracellular vesicles [4]: promotes
- effect on the proliferative activity ([5]; concentration of at least about 0.3 μM or less): do not significantly affect
